Columns and labels:
[1] = target: T1, RBP4 (Homo sapiens (Human), UniProt P02753); assay: Scintillation proximity (SPA) RBP4 binding assay; conditions: 10 nM 3H-Retinol, 50 nM biotinylated RBP4
Description: Scintillation Proximity RBP4 Binding Assay
Untagged human RBP4 purified from urine of tubular proteinuria patients was purchased from Fitzgerald Industries International. It was biotinylated using the EZ-Link Sulfo-NHS-LC-Biotinylation kit from Pierce following the manufacturer's recommendations. Binding experiments were performed in 96-well plates (OptiPlate, PerkinElmer) in a final assay volume of 100 μl per well in SPA buffer (1×PBS, pH 7.4, 1 mM EDTA, 0.1% BSA, 0.5% CHAPS). The reaction mix contained 10 nM ^3H-Retinol (48.7 Ci/mmol; PerkinElmer), 0.3 mg/well Streptavidin-PVT beads, 50 nM biotinylated RBP4 and a test compound. Nonspecific binding was determined in the presence of 20 μM of unlabeled retinol. The reaction mix was assembled in the dark under dim red light. The plates were sealed with clear tape (TopSeal-A: 96-well microplate, PerkinElmer), wrapped in the aluminum foil, and allowed to equilibrate 6 hours at room temperature followed by overnight incubation at +4° C. Radiocounts were measured using a TopCount NXT counter (Packard Instrument Company).

[2] = target: T2, RBP4-TTR interaction (Homo sapiens (Human), UniProt P02753); assay: TR-FRET (HTRF) assay for retinol-induced RBP4-TTR interaction; type: biochemical; conditions: in the presence of 1 μM retinol; read-out: HTRF assay for antagonists of RBP4-TTR interaction: IC50
Source text: Binding of a desired RBP4 antagonist displaces retinol and induces hindrance for RBP4-TTR interaction resulting in the decreased FRET signal (FIG. 7). Bacterially expressed MBP-RBP4 and untagged TTR were used in this assay. […] Following cell lysis, recombinant RBP4 was purified from the soluble fraction using the ACTA FPLC system (GE Healthcare) equipped with the 5-ml the MBP Trap HP column. Human untagged TTR was purchased from Calbiochem. Untagged TTR was labeled directly with Eu^3+ Cryptate-NHS using the HTRF Cryptate Labeling kit from CisBio following the manufacturer's recommendations. HTRF assay was performed in white low volume 384 well plates (Greiner-Bio) in a final assay volume of 16 μl per well. The reaction buffer contained 10 mM Tris-HCl pH 7.5, 1 mM DTT, 0.05% NP-40, 0.05% Prionex, 6% glycerol, and 400 mM KF. […] Titration of test compounds in this assay was conducted in the presence of 1 μM retinol. All reactions were assembled in the dark under dim red light and incubated overnight at +4° C. wrapped in aluminum foil. TR-FRET signal was measured in the SpectraMax M5e Multimode Plate Reader (Molecular Device). […] The TR-FRET signal was expressed as the ratio of fluorescence intensity: Flu665/Flu620×10,000.

[3] = target: T1, RBP4; conditions: cited from earlier work
[4] = target: T2, RBP4-TTR interaction; conditions: cited from earlier work
[5] = target: serum RBP4 and retinol (Rattus norvegicus (Rat), UniProt P04916); conditions: in vivo; cited from earlier work
[6] = system: ocular all-trans retinol uptake; conditions: in vivo; cited from earlier work
[7] = system: Abca4−/− mice; conditions: animal model of excessive bisretinoid accumulation; cited from earlier work
[8] = system: many cell types, including the retinal pigment epithelium cells; conditions: cited from earlier work
[9] = in vivo; cited from earlier work

Compound	IC50 [1] [nM]	IC50 [2] [nM]	binding to RBP4 [3]	displacement of all-trans retinol from RBP4 [3]	disruption of RBP4-TTR interaction [4]	serum RBP4 and retinol [5]	ocular all-trans retinol uptake and visual cycle [6]	A2E production [7]	induction of apoptosis [8]	teratogenicity [9]
COCCN1CCc2c(C(=O)N3CCC(c4cccc(F)c4C(F)(F)F)CC3)n[nH]c2C1 [Compound 73]	8.5	30.6								
CC1=C(/C=C/C(C)=C/C=C/C(C)=C/C(=O)Nc2ccc(O)cc2)C(C)(C)CCC1 [fenretinide, N-(4-hydroxy-phenyl)retinamide]			bind to RBP4	displace all-trans retinol from RBP4	disrupt the RBP4-TTR interaction	reduce serum RBP4 and retinol	inhibit ocular all-trans retinol uptake and slow down the visual cycle	reduced A2E production	extremely active inducer of apoptosis	teratogenic
